Experimental data reported in patent US8022178B2, “Modified self-assembling peptides” (Massachusetts Institute of Technology, priority 2006, dated 2011).
“Also recorded” adds a separate entry of the source.

Key:
[1] = tested on: Mouse preosteoblast cell line (MC3T3-E1); assay: MC3T3-E1 cell proliferation on hydrogels (DNA content, PicoGreen); type: cell-based; settings: pre-osteoblast; when it becomes hydrogel; no data shown
Description: Mouse preosteoblast cell line (MC3T3-E1) was used to compare the proliferation and differentiation effects of the motifs with RAD16-1 and Collagen-I hydrogels as controls. The proliferation was measured by DNA contents and the differentiation effects were evaluated using Alkaline phosphatase (ALP) activity and secreted Osteocalcin. Alkaline phosphatase is known to be differentiation marker of osteoblast in earlier stage. Secreted Osteocalcin is known to be differentiation marker of osteoblast in later stage and its activity is correlated with the bone mineralization.
1% RAD16-I solution [self-assembling peptide solution] was obtained as RAD16-I (Puramatrix™, 3DM Inc./BD Bioscience). The functionalized peptides of Table 2 were dissolved in water at final concentration of 1% (v/w). The functionalized peptide solutions were then mixed with 1% RAD16-I solution at a ratio of 1:1 (Table 4). Each peptide solution was loaded in the Culture plate inserts (10 mm diameter, Millicell-CM, Millipore). […]
Cell proliferation was evaluated using DNA contents in the hydrogel using PicoGreen dsDNA Kits (Molecular Probes). ALP activity was quantitatively measured from cell lysis using Alkaline Phosphatase Fluorescence Assay Kit (Sigma). Osteocalcin was measured from cell culture medium using Mouse Osteocalcin EIA Kit (Biomedical Technologies Inc.).

[2] = pI and charge of the self-assembling peptide; type: physicochemical
Description: (§1) A comparison of the pH dependent property of 1% Ac(RADA)4GGFHRRIKA CONH2 (SEQ ID NO. 6) solution (Code: FHR), self assembling peptide sequence was compared with the heparin-binding motif. FIG. 12 depicts the isoelectric plot and corresponding rheological data when 0.1 N NaOH solution is added to FHR solution to adjust pH. The net charge of the peptide molecule is kept ≧2 when pH<10. Until at point of pH 5.7, the solution keeps viscous state. This movement of pH point where the peptide solution become gel is controlled by the charge induced by the additional motif to the self-assembling peptide. The induced charge prevents the peptide to aggregate to form the gel. Thus, the cell and the peptide solution can be mixed near neutral pH. After complete mixing, the gel formation can be made by adding salt containing solution (e.g., a solution containing a gellation agent or an iso-osmotic solute).
FIG. 18 depicts the isoelectric plot and Rheological data of PFS 1% solution when 0.1 N NaOH solution is added. 1% Ac(RADA)4GGSKPPGTSS-CONH2 solution (Code: SKP, peptide sequence: SEQ ID NO. 7) is a hydrogel composed of peptides with a self-assembling sequence and positively-charged functional motif. Although the pI value of the peptide is 9.74 and it keeps positive charge at near pH 7 range, the gel is formed at the point of pH 4.5. This is because the charge of the molecule around pH 7 range is +1 and smaller than the charge of Ac(RADA)4GGFHRRIKA CONH2 (FHR) (bigger than 3). The charge of the whole peptide should be larger than 2 when the cell is mixed. This pH should be somewhere in 6-8 in order to minimize the damage to the cells. As this sequence is heparin-binding motif, the fiber can attach to the heparin molecule which is abundant at cell surface. This heparin-binding motif provides a specific anchor to the cell. As described in Example 1, this binding synergistically works with the other binding motif (e.g., RGD) to induce biological stimuli for cell proliferation and differentiation. This effect is not limited to the sequences previously describe, but the other motifs, including -XBBXBX- and -XBBBXXBX- sequences. […]

bFGF = bFGF (Homo sapiens, UniProt P09038); assay: bFGF retention in peptide matrix (ELISA); settings: bFGF 175 ng/insert loaded after gelation; during PBS washing and culturing; FIG. 19
Chain of bFGF (P09038 143-288, species assumed): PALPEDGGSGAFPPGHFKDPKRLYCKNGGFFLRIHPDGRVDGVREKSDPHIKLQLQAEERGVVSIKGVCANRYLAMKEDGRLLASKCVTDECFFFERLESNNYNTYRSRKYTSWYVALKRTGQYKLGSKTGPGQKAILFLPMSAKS
Description: (§2) The effect of protein retention and delivery using the self-assembling peptide were studied (Table 11). bFGF was used as a model protein. The retention of bFGF in different peptide matrix in different charge condition was measured by ELISA after washing by PBS. After washing out unbound bFGF, the effect of protein retention to self-assembling peptide matrix were evaluated the using cell culturing of HUVEC (human umbilical vein endothelial cells).
The peptide solutions provided in Table 12 were loaded in the culture inserts (10 mm diameter, Millicell-CM, Millipore) and gels were formed using PBS. After gelation, bFGF solution in PBS was added inside and outside and plated for overnight. bFGF was loaded at 175 ng/insert. After loading bFGF, the PBS inside and outside the inserts were exchanged three times (2 hours, 9 hours and 12 hours) to remove unbound bFGF (Washing). After the washing, the PBS was exchanged to the cell culture medium (EGM-2-MV, Camblex) without attached growth factor (bFGF, VEGF and EGF) and placed more than a day (such that the fluid contained in the gel is exchanged from PBS to cell culture medium), then HUVEC (human umbilical vein endothelial cells) were plated at 7.5×10^4 cells on the inserts and cultured for three days.
Cell culturing using cell culture medium (EGM-2-MV) was used without attached growth factor on peptide matrix as negative control. Cell culturing using cell culture medium (EGM-2-MV) was used with attached growth factor on peptide matrix without loading growth factor as positive control. The bFGF concentration in washing buffer (PBS) and cell culture medium (EGM-2-MV) was measured using ELISA. The washing buffer and cell culture medium were exchanged at each measurement period (2 hours, 9 hours and 12 hours for washing, and at the cell seeding (D0), Day 1 (D 1), Day 2 (D2) and Day 3 (D3)). Growth factor retention rate was calculated by accumulating the amount of measured bFGF.

[3] = tested on: HUVEC (human umbilical vein endothelial cells); assay: HUVEC cell attachment on hydrogels based on various self-assembling sequence; settings: HUVEC cultured for three days
Description: Cell attachment and viability of the hydrogels were evaluated using HUVEC (human umbilical vein endothelial cells). The peptide solutions shown in Table 22 were loaded in the culture inserts (10 mm diameter, Millicell-CM, Millipore) and gels were formed using cell culture medium (EGM-2-MV, Camblex). HUVEC were plated at 8×10^4 cells on the inserts and cultured for three days.
This implies that functionalization of the self-assembling peptide is useful regardless of the basic repetitive sequence, while the properties of hydrogel can be controlled by altering basic repetitive sequence in amino acid and length.

[4] = neutral pH range (Caplan 2002a); cited from earlier work
[5] = neutral pH range (Caplan 2002a); cited from earlier work; remark: listed apart in the source
[6] = tested on: HUVEC (human umbilical vein endothelial cells); assay: HUVEC culture on bFGF loaded peptide matrix; type: cell-based; settings: Day 3; bFGF loaded matrix compared to negative and positive control; FIG. 21
Description: as §2
The peptide solutions provided in Table 12 were loaded in the culture inserts (10 mm diameter, Millicell-CM, Millipore) and gels were formed using PBS. After gelation, bFGF solution in PBS was added inside and outside and plated for overnight. bFGF was loaded at 175 ng/insert. After loading bFGF, the PBS inside and outside the inserts were exchanged three times (2 hours, 9 hours and 12 hours) to remove unbound bFGF (Washing). […]
Cell culturing using cell culture medium (EGM-2-MV) was used without attached growth factor on peptide matrix as negative control. […] The bFGF concentration in washing buffer (PBS) and cell culture medium (EGM-2-MV) was measured using ELISA. […] Growth factor retention rate was calculated by accumulating the amount of measured bFGF. […]

[7] = tested on: HUVEC (human umbilical vein endothelial cells); assay: HUVEC cultured 2-dimensionally on hydrogels: cell attachment and morphology; type: cell-based; parameters: key to Capillary like morphology: weak: +; medium: ++; strong: +++; very strong: ++++; settings: HUVEC cultured on hydrogels
Description: The effect of functional modified peptide matrix to HUVEC (human umbilical vein endothelial cells) was evaluated by culturing cells 2-dimensionally on the gel.
The peptide solutions shown in Table 19 were loaded in the culture inserts (10 mm diameter, Millicell-CM, Millipore) and gels were formed using cell culture medium (EGM-2-MV, Camblex). Collagen-1 and Matrigel were used as control matrices. HUVEC (human umbilical vein endothelial cells) were plated at 8×10^4 cells on the inserts and cultured up to 7 Days.

[8] = Isoelectric plot and rheological data when 0.1 N NaOH is added (pH of gel formation); type: physicochemical; settings: 1% solution, 0.1 N NaOH solution added
Text: At the point of pH 3.6, the viscous solution become gel and has a higher G′ (stiffness), G″ (viscosity) value. When the pH is increased, the gel breaks into small pieces and it becomes a solution with precipitated peptides. At lower pH, the peptide forms fibers and the fibers make the solution viscous. When the pH becomes higher, and approaches the pI value, the peptide fibers lose their charge and aggregate to form gel. The same gel formation happens when the peptide charge is screened by salts in a salt-containing solution (e.g., a solution containing a gellation agent or an iso-osmotic solute). Once the gel is formed, the fiber structure is broken into pieces to form a precipitate particle.
as §1
FIG. 18 depicts the isoelectric plot and Rheological data of PFS 1% solution when 0.1 N NaOH solution is added. 1% Ac(RADA)4GGSKPPGTSS-CONH2 solution (Code: SKP, peptide sequence: SEQ ID NO. 7) is a hydrogel composed of peptides with a self-assembling sequence and positively-charged functional motif. Although the pI value of the peptide is 9.74 and it keeps positive charge at near pH 7 range, the gel is formed at the point of pH 4.5. […]

MC3T3-E1 cells [9] = assay: Effect of RAD:DSG mixture ratio on cell proliferation (DNA contents, 7 days); type: cell-based, mouse; settings: RAD:DSG mixture ratio varied from 100:0 to 0:100, FIG. 8
Description: Effect of a mixture of self-assembling sequence peptide (e.g., 1% RAD16-1 peptide solution) and a functionalized peptide (SEQ ID NO. 7) with self-assembling sequence (RADA) (SEQ ID NO. 67) and functional motif (RGD), was evaluated (Tables 8-9) SEQ ID NO. 7 has an additional Glycine at the N-terminus (compared to SEQ ID NO. 4), which causes an increase in hydrophobicity of the hydrogel. Biologically SEQ ID NO. 4 and SEQ ID NO. 7 are considered to have similar effects.
Hydrogels were prepared so that the mixture ratio of RAD and DSG was varied from 100:0 to 0:100 (FIG. 8). Cells were prepared and seeded as described in Example 1. Cells were cultured on hydrogels for 7 days. Cell proliferation was evaluated using DNA contents in the hydrogel as same as Example 1.

MC3T3-E1 cells [10] = assay: Confocal microscopy of cells cultured on different functional peptide (DSG) concentration; type: cell-based, mouse
[11] = Gel stiffness of hydrogel; type: physicochemical; settings: compared to RAD
chondrocytes = settings: encapsulated chondrocytes (Kisiday 2002); cited from earlier work

With “Ac(FKFQ)3-CONH2 (Ac-FKFQFKFQFKFQ-NH2) [FKF = 1% solution; FKF-2P = 2% solution, reference compound]” the “cell proliferation on hydrogel” value [1] was “supports cell proliferation”, the charge [2] was “positively charged” and the pI [2] was 10.30,. For the same substance, the “bFGF (growth factor) retention rate” value (bFGF) was “high in the order of KFQ-2P, FHR-2P, RAD-2P then DGR-2P”, the Cell attachment [3] was “++ (++: 20-50%)” and the “charge in neutral pH range” value [4] was “positively charged”. The “phase of peptide solution in neutral pH range” value [5] was “stays solution phase; also recorded: stays in solution”.

In the case of “Ac(RADA)4GGDGRGDSVAYG-CONH2 (Ac-RADARADARADARADAGGDGRGDSVAYG-NH2) [SEQ ID NO. 5, Cell adhesion domain (Osteopontin); DGR-2P = 2% solution]”, the charge [2] is reported as “negatively charged”, the pI [2] is reported as 4.78, and the “bFGF (growth factor) retention rate” value (bFGF) is reported as “high in the order of KFQ-2P, FHR-2P, RAD-2P then DGR-2P”. The “cell attachment and cell spread” value [6] was “superior”.

In the case of “Ac(RADA)4GGPFSSTKT-CONH2 (Ac-RADARADARADARADAGGPFSSTKT-NH2) [Bone marrow homing; PFS = 1% peptide solution]”, the Capillary like morphology [7] is reported as “+” and the Cell attachment [7] is reported as “++ (++: 20-50%)”.

In the case of “Ac(RADA)4GGSKPPGTSS-CONH2 (Ac-RADARADARADARADAGGSKPPGTSS-NH2) [Bone marrow homing; SKP = 1% solution]”, the “pH at which the viscous peptide solution becomes gel” value [8] is reported as 4.5, the pI [2] is reported as 9.74 and the “charge of the molecule around pH 7 range” value ([2]; around pH 7) is reported as “+1”.

With “Ac(RADA)4GPRGDSGYRGDSG-CONH2 (Ac-RADARADARADARADAGPRGDSGYRGDSG-NH2) [DSG = 1% solution]” the “Cell proliferation (fluorescence intensity linear to the DNA contents)” value (MC3T3-E1 cells [9]) was “drop in fluorescence and drop”, the “cell location on the peptide matrix” value (MC3T3-E1 cells [10]; DSG ratio 10%, FIG. 9A) was “stayed on the surface of the peptide matrix” and the “cell migration into the matrix” value (MC3T3-E1 cells [10]; DSG ratio 70%, FIG. 9B) was “up to 300 um”. For the same substance, the gel stiffness [11] was “less stiff gel; also recorded: lower stiffness gel”.

In the case of Ac-IEIKIEIKI-NH2 [reference compound], the Cell attachment [3] is reported as “++ (++: 20-50%)”.

With AcFKFQFKFQFKFQGPRGDSGYRGDS-CONH2 [KPRG] the Cell attachment [3] was “++++ (++++: near confluence(>70%))”.

In the case of AcIEIKIEIKIGGPFSSTKT-CONH2 [EPFS], the Cell attachment [3] is reported as “+ (+: Weak(<20%))”.

For AcIEIKIEIKIGGPRGSYRGDS-CONH2 [EPRG], the Cell attachment [3] was “++++ (++++: near confluence(>70%))”.

With AcIEIKIEIKIGGSKPPGTS-CONH2 [ESKP] the Cell attachment [3] was “+ (+: Weak(<20%))”.

In the case of “AcNKLDLKLDLKLDL-CONH2 (Ac-KLDLKLDLKLDL-NH2; not fully specified) [KLD12]”, the “chondrocyte phenotype and ECM” value (chondrocytes) is listed as “retained their morphology and developed a cartilage-like, mechanically functional ECM rich in proteoglycans and type-II collagen”.
